# Active and inactive are the calls of the source. The calls are words filed in the database; no cut-off is given here.
# Experiments:
# [1] = target: T1, DNA topoisomerase 1 (Homo sapiens) (UniProt P11387); assay: Inhibition of recombinant Top1 (unknown origin) assessed as inhibition of relaxation of supercoiled pBR322 plasmid DNA at 100 uM incubated for 15 mins by ethidium bromide staining based agarose gel electrophoresis analysis
# T1 sequence (whole entry): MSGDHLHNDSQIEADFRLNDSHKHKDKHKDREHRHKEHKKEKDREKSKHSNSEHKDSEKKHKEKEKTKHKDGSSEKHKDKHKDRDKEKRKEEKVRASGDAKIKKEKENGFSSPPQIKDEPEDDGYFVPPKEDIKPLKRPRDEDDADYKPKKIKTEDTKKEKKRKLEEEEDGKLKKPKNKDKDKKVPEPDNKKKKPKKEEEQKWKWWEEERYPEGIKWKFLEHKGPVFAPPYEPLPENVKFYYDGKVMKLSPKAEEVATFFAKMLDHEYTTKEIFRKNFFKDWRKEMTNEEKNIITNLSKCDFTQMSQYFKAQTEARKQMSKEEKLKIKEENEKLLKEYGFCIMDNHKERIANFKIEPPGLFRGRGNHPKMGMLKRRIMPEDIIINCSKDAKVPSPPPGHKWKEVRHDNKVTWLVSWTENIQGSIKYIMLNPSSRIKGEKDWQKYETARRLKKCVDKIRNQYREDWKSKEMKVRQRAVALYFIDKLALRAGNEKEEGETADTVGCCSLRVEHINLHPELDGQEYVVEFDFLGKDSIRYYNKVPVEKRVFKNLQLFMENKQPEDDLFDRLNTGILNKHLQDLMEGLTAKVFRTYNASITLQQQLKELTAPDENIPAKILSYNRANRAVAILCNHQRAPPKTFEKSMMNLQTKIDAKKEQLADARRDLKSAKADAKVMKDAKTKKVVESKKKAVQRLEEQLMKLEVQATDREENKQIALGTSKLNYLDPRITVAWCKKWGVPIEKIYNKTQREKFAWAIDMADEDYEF
# [2] = target: DNA topoisomerase 2-alpha (Homo sapiens) (UniProt P11388); assay: Inhibition of recombinant Top2 (unknown origin) assessed as inhibition of relaxation of supercoiled pBR322 plasmid DNA at 50 uM incubated for 15 mins by ethidium bromide staining based agarose gel electrophoresis analysis
# [3] = system: MCF7; assay: Antiproliferative activity against human MCF7 cells assessed as cell growth inhibition incubated for 8 hrs by CCK8 assay; format: functional, cell-based; conditions: MCF7, 8 h
# [4] = system: HCT-116; assay: Antiproliferative activity against human HCT-116 cells assessed as cell growth inhibition incubated for 8 hrs by CCK8 assay; format: functional, cell-based; conditions: HCT-116, 8 h
# [5] = system: K562; assay: Antiproliferative activity against human K562 cells assessed as cell growth inhibition incubated for 8 hrs by CCK8 assay; format: functional, cell-based; conditions: K562, 8 h
# [6] = target: DNA topoisomerase 2-alpha (Homo sapiens) (UniProt P11388); assay: Inhibition of recombinant Top2 (unknown origin) assessed as inhibition of relaxation of supercoiled pBR322 plasmid DNA at 100 uM incubated for 15 mins by ethidium bromide staining based agarose gel electrophoresis analysis
# [7] = target: Histone deacetylase 3 (Homo sapiens, UniProt O15379); assay: Inhibition of recombinant His-tagged human HDAC3 expressed in baculovirus infected insect cells using Ac-Leu-Gly-Lys(Ac)-AMC as substrate preincubated for 5 mins followed by substrate addition and further incubated for 30 mins by fluorescence based microtiter plate reader assay
# [8] = target: T2, Histone deacetylase 8 (Homo sapiens, UniProt Q9BY41); assay: Inhibition of full-length recombinant C-terminal His-tagged human HDAC8 expressed in baculovirus infected Sf9 insect cells using Ac-Leu-Gly-Lys(Tfa)-AMC as substrate preincubated for 5 mins followed by substrate addition and further incubated for 30 mins by fluorescence based microtiter plate reader assay
# T2 sequence (Q9BY41 whole entry): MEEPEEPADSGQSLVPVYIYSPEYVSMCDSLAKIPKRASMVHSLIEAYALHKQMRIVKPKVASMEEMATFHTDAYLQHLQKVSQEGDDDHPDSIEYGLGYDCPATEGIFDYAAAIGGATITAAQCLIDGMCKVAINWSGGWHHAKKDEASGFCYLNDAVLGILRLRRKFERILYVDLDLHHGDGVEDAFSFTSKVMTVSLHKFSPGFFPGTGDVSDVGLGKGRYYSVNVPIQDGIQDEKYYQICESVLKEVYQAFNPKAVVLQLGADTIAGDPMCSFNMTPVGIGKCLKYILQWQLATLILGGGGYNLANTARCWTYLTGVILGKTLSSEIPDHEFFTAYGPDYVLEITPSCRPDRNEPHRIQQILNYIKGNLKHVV
# [9] = target: T3, Histone deacetylase 1 (Homo sapiens, UniProt Q13547); assay: Inhibition of HDAC1 in HEL cells assessed as increase in acetyl-H3 levels at 20 to 100 nM incubated for 24 hrs by western blot analysis; format: cell-based; conditions: dose 20-100 nM
# [10] = target: T4, Histone deacetylase 2 (Homo sapiens, UniProt Q92769); assay: Inhibition of HDAC2 in HEL cells assessed as increase in acetyl-H4 levels at 20 to 100 nM incubated for 24 hrs by western blot analysis; format: cell-based; conditions: dose 20-100 nM
# [11] = system: HEL; assay: Induction of apoptosis in HEL cells assessed as apoptotic cells at 0.5 uM incubated for 48 hrs by annexin V-FITC/PI staining based flow cytometry (reference value: 4.23%); format: functional, Homo sapiens
# [12] = system: HEL; assay: Induction of cell cycle arrest in HEL cells assessed as change in S-phase ratio at 0.02 uM incubated for 48 hrs by PI staining based flow cytometry relative to control; format: functional, Homo sapiens
# [13] = system: HEL; assay: Induction of cell cycle arrest in HEL cells assessed as change in S-phase ratio at 0.1 uM incubated for 48 hrs by PI staining based flow cytometry relative to control; format: functional, Homo sapiens
# [14] = system: HEL; assay: Antitumor activity against HEL cells xenografted in BALB/C mouse assessed as tumor growth inhibition at 5 mg/kg, po qd for 14 days consecutively by caliper method relative to control; format: functional, Homo sapiens; conditions: 336 h, time 14 day, read-out: TGI
# [15] = system: HEL; assay: Antitumor activity against HEL cells xenografted in BALB/C mouse assessed as T/C value at 10 mg/kg, po qd for 14 days consecutively by caliper method relative to control; format: functional, Homo sapiens; conditions: time 14 day
# [16] = Toxicity in BALB/C mouse xenografted with HEL cells assessed as change in body weight at 5 to 10 mg/kg, po qd for 14 days consecutively; format: organism-based; conditions: in vivo, 336 h, dose 5-10 mg/kg, time 14 day
# [17] = Toxicity in BALB/C mouse xenografted with HEL cells assessed as animal death at 5 to 10 mg/kg, po qd for 14 days consecutively; format: organism-based; conditions: in vivo, 336 h, dose 5-10 mg/kg, time 14 day
# [18] = target: T3, Histone deacetylase 1; assay: In vivo inhibition of HDAC1 in HEL cells xenografted in BALB/C mouse assessed as upregulation of acetyl-H3 levels at 5 to 10 mg/kg by immunohistochemical staining method; format: functional, organism-based; conditions: dose 5-10 mg/kg
# [19] = target: T4, Histone deacetylase 2; assay: In vivo inhibition of HDAC2 in HEL cells xenografted in BALB/C mouse assessed as upregulation of acetyl-H4 levels at 5 to 10 mg/kg by immunohistochemical staining method; format: functional, organism-based; conditions: dose 5-10 mg/kg
# [20] = target: Histone deacetylase (Homo sapiens) (UniProt Q13547+O15379+Q9UBN7+Q92769+Q9UQL6+Q8WUI4+Q9BY41+Q96DB2+P56524+Q9UKV0+Q969S8); assay: In vivo inhibition of HDAC in HEL cells xenografted in BALB/C mouse assessed as upregulation of caspase-9 levels at 5 to 10 mg/kg by immunohistochemical staining method; format: functional, organism-based; conditions: dose 5-10 mg/kg
# T3 sequence (Q13547 whole entry): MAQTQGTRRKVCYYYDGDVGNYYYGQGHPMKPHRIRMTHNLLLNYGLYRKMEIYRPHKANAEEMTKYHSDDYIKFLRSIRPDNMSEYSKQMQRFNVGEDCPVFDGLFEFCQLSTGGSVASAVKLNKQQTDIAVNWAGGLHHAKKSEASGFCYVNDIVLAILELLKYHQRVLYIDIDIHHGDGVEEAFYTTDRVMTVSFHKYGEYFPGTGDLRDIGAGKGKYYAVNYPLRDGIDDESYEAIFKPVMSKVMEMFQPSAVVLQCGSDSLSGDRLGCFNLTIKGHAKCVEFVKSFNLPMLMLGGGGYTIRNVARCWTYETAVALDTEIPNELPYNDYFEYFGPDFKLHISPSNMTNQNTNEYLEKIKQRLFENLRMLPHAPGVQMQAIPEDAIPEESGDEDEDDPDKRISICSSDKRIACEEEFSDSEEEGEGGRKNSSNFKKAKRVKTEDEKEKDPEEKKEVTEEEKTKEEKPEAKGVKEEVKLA
# T4 sequence (Q92769 whole entry): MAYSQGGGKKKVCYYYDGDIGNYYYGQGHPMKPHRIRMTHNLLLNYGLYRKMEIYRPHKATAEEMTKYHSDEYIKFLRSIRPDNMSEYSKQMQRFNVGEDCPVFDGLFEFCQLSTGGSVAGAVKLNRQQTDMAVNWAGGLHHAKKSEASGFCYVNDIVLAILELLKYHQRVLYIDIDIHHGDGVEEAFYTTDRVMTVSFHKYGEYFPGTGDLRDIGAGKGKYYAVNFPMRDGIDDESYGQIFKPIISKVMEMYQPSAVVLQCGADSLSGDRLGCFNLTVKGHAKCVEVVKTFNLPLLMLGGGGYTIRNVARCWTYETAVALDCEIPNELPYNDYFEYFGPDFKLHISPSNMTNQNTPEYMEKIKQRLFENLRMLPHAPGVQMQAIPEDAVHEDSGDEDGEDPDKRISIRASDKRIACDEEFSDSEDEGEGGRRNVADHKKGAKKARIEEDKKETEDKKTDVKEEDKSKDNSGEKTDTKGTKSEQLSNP
# Chain of DNA topoisomerase 2-alpha (Homo sapiens) (P11388 whole entry): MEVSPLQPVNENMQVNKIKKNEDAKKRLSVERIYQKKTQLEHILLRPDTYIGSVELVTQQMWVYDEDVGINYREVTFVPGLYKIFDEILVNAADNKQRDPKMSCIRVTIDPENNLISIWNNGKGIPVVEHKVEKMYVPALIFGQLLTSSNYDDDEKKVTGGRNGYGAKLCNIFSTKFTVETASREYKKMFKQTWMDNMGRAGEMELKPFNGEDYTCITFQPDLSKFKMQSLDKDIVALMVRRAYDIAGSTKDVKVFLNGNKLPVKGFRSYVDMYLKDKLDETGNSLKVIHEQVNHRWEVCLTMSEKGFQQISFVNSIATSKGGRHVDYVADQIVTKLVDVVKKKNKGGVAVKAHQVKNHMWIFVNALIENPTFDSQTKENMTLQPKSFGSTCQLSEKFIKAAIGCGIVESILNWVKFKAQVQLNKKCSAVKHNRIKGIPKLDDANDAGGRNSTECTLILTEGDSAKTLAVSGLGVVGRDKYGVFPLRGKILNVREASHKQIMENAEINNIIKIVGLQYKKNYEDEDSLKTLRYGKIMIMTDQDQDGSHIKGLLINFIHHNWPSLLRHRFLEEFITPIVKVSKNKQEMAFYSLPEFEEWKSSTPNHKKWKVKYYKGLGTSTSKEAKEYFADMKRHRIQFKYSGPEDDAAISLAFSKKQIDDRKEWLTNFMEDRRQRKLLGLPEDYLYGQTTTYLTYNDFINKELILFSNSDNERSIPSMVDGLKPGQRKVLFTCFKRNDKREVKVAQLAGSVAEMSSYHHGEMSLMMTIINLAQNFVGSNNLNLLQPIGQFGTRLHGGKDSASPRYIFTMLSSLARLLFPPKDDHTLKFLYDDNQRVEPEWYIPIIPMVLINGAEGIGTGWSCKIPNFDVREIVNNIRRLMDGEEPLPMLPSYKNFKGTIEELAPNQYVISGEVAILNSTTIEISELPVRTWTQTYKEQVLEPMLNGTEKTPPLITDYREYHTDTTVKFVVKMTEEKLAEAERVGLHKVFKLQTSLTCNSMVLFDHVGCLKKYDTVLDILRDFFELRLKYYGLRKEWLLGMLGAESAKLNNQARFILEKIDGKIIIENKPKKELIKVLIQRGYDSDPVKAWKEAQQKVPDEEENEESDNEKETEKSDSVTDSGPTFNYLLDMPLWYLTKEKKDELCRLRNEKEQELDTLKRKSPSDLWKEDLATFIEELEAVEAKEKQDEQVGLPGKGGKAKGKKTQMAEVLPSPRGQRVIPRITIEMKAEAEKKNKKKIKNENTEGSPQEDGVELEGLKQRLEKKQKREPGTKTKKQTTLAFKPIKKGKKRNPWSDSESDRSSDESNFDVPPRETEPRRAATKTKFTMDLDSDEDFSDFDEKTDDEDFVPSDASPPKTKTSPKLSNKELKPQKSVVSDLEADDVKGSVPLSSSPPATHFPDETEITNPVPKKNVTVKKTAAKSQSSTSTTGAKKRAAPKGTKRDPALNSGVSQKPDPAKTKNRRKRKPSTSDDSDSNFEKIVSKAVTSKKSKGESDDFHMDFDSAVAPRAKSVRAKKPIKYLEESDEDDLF
# Chain of Histone deacetylase 3 (O15379 whole entry): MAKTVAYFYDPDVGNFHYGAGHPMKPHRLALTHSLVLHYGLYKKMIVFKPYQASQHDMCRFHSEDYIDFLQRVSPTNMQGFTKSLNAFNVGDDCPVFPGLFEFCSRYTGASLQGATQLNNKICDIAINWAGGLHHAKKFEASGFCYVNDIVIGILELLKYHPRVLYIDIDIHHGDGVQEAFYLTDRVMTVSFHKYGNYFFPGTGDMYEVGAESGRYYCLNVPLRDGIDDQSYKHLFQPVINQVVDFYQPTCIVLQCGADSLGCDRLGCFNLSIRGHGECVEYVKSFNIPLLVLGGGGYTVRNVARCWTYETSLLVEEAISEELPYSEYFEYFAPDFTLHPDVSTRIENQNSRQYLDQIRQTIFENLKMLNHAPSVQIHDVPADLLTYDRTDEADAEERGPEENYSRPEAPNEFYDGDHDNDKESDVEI
structure (smiles),measurement,setting,value
CN1c2ccc(F)cc2C(=O)N2CCc3c([nH]c4ccc(OCc5ccc(/C=C/C(=O)NO)cc5)cc34)C21 (stereo not given),inhibition,[1],Active
same,inhibition,[2],Active
same,IC50,[3],> 2 µM
same,IC50,[4],0.21 µM
same,IC50,[5],0.35 µM
same,inhibition,[6],Active
same,IC50,[7],0.059 µM
same,IC50,[8],9.8 µM
same,inhibition,[9],Active
same,inhibition,[10],Active
same,Activity,[11],76.45%
same,Activity,[12],9.8%
same,Activity,[13],15.4%
same,inhibition in vivo at 5 mg/kg,[14],41.4%
same,T/C,[15],25.5%
same,Activity,[16],Non-Toxic
same,Activity,[17],Non-Toxic
same,inhibition,[18],Active
same,inhibition,[19],Active
same,inhibition,[20],Active
